Measured values reported in patent US20190117713A1, “ANTIBACTERIAL COMPOSITION” (FermBiotics Holding ApS, priority 2016, published 2019).

Test system: streptococcus infection
Test: Treatment of a patient suffering from a streptococcus infection (case report)
Conditions: treatment repeated 4 times more

phenoxymethylpenicillinsodium
Improvement of streptococcus infection after repeated treatment: no significant improvement
